Experimental data from US9556159B2, “Renin inhibitor” (MITSUBISHI TANABE PHARMA CORPORATION, priority 2012, dated 2017).

The compounds below were run against T1, Recombinant human renin (Homo sapiens, UniProt P00797) (assay: Inhibitory activity against human renin (fluorogenic peptide substrate)). Settings: 50% inhibitory concentration (IC50) against human renin, 37° C. for 1 hour.
T1 sequence (P00797 67-406): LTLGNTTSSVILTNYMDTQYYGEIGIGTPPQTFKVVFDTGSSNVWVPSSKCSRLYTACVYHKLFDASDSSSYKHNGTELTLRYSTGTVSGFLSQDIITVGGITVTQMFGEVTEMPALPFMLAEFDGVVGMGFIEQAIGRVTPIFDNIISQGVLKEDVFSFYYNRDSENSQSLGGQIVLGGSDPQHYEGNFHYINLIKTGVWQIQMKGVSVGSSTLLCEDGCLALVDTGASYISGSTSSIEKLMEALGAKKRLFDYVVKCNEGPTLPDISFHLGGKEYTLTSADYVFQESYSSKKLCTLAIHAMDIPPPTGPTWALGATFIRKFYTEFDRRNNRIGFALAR
Type: biochemical
Method: Inhibitory Activity Against Human Renin
A substrate of synthetic peptide (Nma-KHPFH LVIHK(Dnp)-NH2) and test compound were mixed, and fluorescence intensity was assayed using a fluorophotometer before starting an enzymatic reaction (exciting wavelength: 340 nm, measuring wavelength: 460 nm). Recombinant human renin was added and the mixture was incubated at 37° C. for 1 hour, and the fluorescence intensity was measured after the reaction using a fluorophotometer (exciting wavelength: 340 nm, measuring wavelength: 460 nm).
With `COc1ccc2nc([C@@H](C)N(C(=O)[C@H]3CNCCO3)C3CC3)cc(CCCNC=O)c2c1` [Example 157] the IC50 was 3.4 nM. Work on `COC(=O)NCCCn1nc([C@@H](C)N(C(=O)[C@H]2CNCCO2)C2CC2)cc1-c1ccc(F)cc1` [Example 158] yielded an IC50 of 0.3 nM. `COC(=O)NCCCn1nc([C@@H](C)N(C(=O)[C@H]2CNCCO2)C2CC2)cc1-c1ccccc1` [Example 159] showed an IC50 of 0.2 nM. `COCCCCn1cc([C@@H](C)N(C(=O)[C@H]2CNCCO2)C2CC2)nc1-c1ccccc1` [Example 160] was tested, and the IC50 was 0.8 nM. `CCc1nc([C@@H](C)N(C(=O)[C@H]2CNCCO2)C2CC2)cc2c1c(C#N)cn2CCCOC` [Example 161] showed an IC50 of 0.7 nM. Work on `COC(=O)NCCCn1cc([C@@H](C)N(C(=O)[C@H]2CNCCO2)C2CC2)c2ncc(C(C)C)nc21` [Example 162] yielded an IC50 of 0.6 nM. In the case of `COC(=O)NCCCn1cc([C@@H](C)N(C(=O)[C@H]2CNCCO2)C2CC2)nc1-c1ccc(C)cc1` [Example 163], the IC50 is reported as 0.4 nM. `COC(=O)NCCCn1cc([C@@H](C)N(C(=O)[C@H]2CNCCO2)C2CC2)nc1-c1ccc(C(F)(F)F)cc1` [Example 164] was tested, and the IC50 was 0.6 nM. `COC(=O)NCCCn1cc([C@@H](C)N(C(=O)[C@H]2CNCCO2)C2CC2)nc1-c1cccc(F)c1` [Example 165] gave an IC50 of 0.6 nM. Work on `COC(=O)NCCCn1nc([C@@H](C)N(C(=O)[C@H]2CNCC(C)(C)O2)C2CC2)c2ccc(C)nc21` [Example 166] yielded an IC50 of 7 nM. In the case of `COC(=O)NCCCc1cc([C@@H](C)N(C(=O)[C@H]2CNCCO2)C2CC2)nc2ccoc12` [Example 167], the IC50 is reported as 4.1 nM. Compound `COC(=O)NCCCn1cc([C@@H](C)N(C(=O)[C@H]2CNCCO2)C2CC2)nc1-c1ccccc1F` [Example 168] has an IC50 of 0.3 nM. In the case of `COC(=O)NCCCn1cc([C@@H](C)N(C(=O)[C@H]2CNCCO2)C2CC2)nc1-c1ccccc1Cl` [Example 169], the IC50 is reported as 0.3 nM. `COC(=O)NCCCn1cc([C@@H](C)N(C(=O)[C@H]2CNCCO2)C2CC2)nc1-c1ccc(Cl)cc1` [Example 170] gave an IC50 of 0.4 nM. Compound `COC(=O)NCCCn1cc([C@@H](C)N(C(=O)[C@H]2CNCCO2)C2CC2)nc1-c1ccc(F)cc1` [Example 171] has an IC50 of 0.4 nM. Work on `COC(=O)NCCCn1nc([C@@H](C)N(C(=O)[C@H]2CNCCO2)C2CC2)cc1-c1cccc(F)c1` [Example 172] yielded an IC50 of 0.4 nM. `COC(=O)NCCCn1nc([C@@H](C)N(C(=O)[C@H]2CNCCO2)C2CC2)cc1-c1ccccc1F` [Example 173] showed an IC50 of 0.3 nM. `COC(=O)NCCCn1nc([C@@H](C)N(C(=O)[C@H]2CNCCO2)C2CC2)cc1-c1ccc(OC)nc1` [Example 174] was tested, and the IC50 was 0.4 nM. With `COC(=O)NCCCn1cc([C@@H](C)N(C(=O)[C@H]2CNCCO2)C2CC2)nc1-c1cccc(Cl)c1` [Example 175] the IC50 was 0.3 nM. With `COC(=O)NCCCn1nc([C@@H](C)N(C(=O)[C@H]2CNCCO2)C2CC2)cc1-c1cccc(C)n1` [Example 176] the IC50 was 0.4 nM. In the case of `COC(=O)NCCCn1nc([C@@H](C)N(C(=O)[C@H]2CNCCO2)C2CC2)cc1-c1ccc(F)cn1` [Example 177], the IC50 is reported as 1 nM. `COC(=O)NCCCn1cc([C@@H](C)N(C(=O)[C@H]2CNCCO2)C2CC2)nc1-c1cccc(C)c1` [Example 178] was tested, and the IC50 was 0.3 nM. `COC(=O)NCCCn1cc([C@@H](C)N(C(=O)[C@H]2CNCCO2)C2CC2)nc1-c1ccccc1C` [Example 179] was tested, and the IC50 was 0.3 nM. In the case of `COC(=O)NCCCn1nc([C@@H](C)N(C(=O)[C@H]2CNCCO2)C2CC2)cc1-c1ccc(C)nc1` [Example 180], the IC50 is reported as 0.6 nM. In the case of `COC(=O)NCCCn1cc([C@@H](C)N(C(=O)[C@H]2CNCCO2)C2CC2)nc1C(C)C` [Example 181], the IC50 is reported as 0.7 nM. `COC(=O)NCCCc1nc([C@@H](C)N(C(=O)[C@H]2CNCCO2)C2CC2)cn1-c1ccccc1` [Example 182] was tested, and the IC50 was 0.7 nM. `COC(=O)NCCCc1cc([C@@H](C)N(C(=O)[C@H]2CNCCO2)C2CC2)nn1-c1ccccc1` [Example 183] was tested, and the IC50 was 0.3 nM. For `COC(=O)NCCCn1nc([C@@H](C)N(C(=O)[C@H]2CNCCO2)C2CC2)cc1-c1ccc(C)cn1` [Example 184], the IC50 was 0.5 nM.
